Results from US12544395B2, “Combination compositions comprising a beta-lactamase inhibitor and uses thereof” (priority 2018, dated 2026).

Key:
Type in all cases: cell-based
Conditions in all cases: with inhibitor at 4 μg/mL
[1] = system: E. coli 2150; test: Broth microdilution MIC (strain enzymes: SHV-3, TEM-1)
[2] = system: K. pneumoniae KI (KCl); test: Broth microdilution MIC (strain enzymes: TEM-10)
[3] = system: K. pneumoniae ESBL 8 #1; test: Broth microdilution MIC (strain enzymes: TEM-1, SHV-12)
[4] = system: K. oxytoca 169219; test: Broth microdilution MIC (strain enzymes: TEM-1, CTXM-15)
[5] = system: E. coli SI-V502; test: Broth microdilution MIC (strain enzymes: TEM-29, CTX-M15)
[6] = system: E. coli SI-NO36; test: Broth microdilution MIC (strain enzymes: SHV-11, TEM-1)
[7] = system: E. coli SI-AIRT-4; test: Broth microdilution MIC (strain enzymes: TEM-1)
[8] = system: K. pneumoniae SI-KP NO30; test: Broth microdilution MIC (strain enzymes: TEM-26b, SHV-60, SHV-26)
[9] = system: K. pneumoniae 153239; test: Broth microdilution MIC (strain enzymes: SHV-11, TEM-1)
[10] = system: K. pneumoniae 170375; test: Broth microdilution MIC (strain enzymes: SHV-12, CTX-M15 and TEM-1)
[11] = system: K. pneumoniae KP 8; test: Broth microdilution MIC (strain enzymes: TEM-10, TEM-1, CTX-M15)
[12] = system: K. pneumoniae BAA 1705; test: Broth microdilution MIC (strain KPC-producing)
[13] = system: K. pneumoniae 115468; test: Broth microdilution MIC (strain enzymes: TEM-1)
[14] = system: E. coli BAS 1; test: Broth microdilution MIC (strain enzymes: none detected)
[15] = system: K. pneumoniae KPN 508; test: Broth microdilution MIC (strain enzymes: SHV-7, TEM-1)
[16] = system: K. pneumoniae KP 3; test: Broth microdilution MIC (strain enzymes: SHV-1, TEM-1)
[17] = system: E. coli SI-PBLII; test: Broth microdilution MIC (strain enzymes: CTX-M2, TEM-1)
[18] = system: E. coli ESBL 4; test: Broth microdilution MIC (strain enzymes: CTX-M15, TEM-1)
[19] = system: K. pneumoniae 11/23 LF#2; test: microbe, parasite or virus in culture
[20] = system: E. coli SI-LP377; test: microbe, parasite or virus in culture
[21] = system: K. pneumoniae 3151; test: Broth microdilution MIC (strain enzymes: SHV-12, TEM-1)

O=C(O)[C@H]1/C(=C/CO)O[C@@H]2CC(=O)N21 [Clavulanic acid, clavulanic acid, reference compound]
MIC of cefalexin (LEX) [1]: 0.5 µg/mL | MIC of cefdinir (CDR) [1]: 0.5 µg/mL | MIC of cefixime (CFM) [1]: 1 µg/mL | MIC of ceftibuten (CTB) [1]: 0.5 µg/mL | MIC of cefalexin (LEX) [2]: 0.125 µg/mL | MIC of cefdinir (CDR) [2]: 0.125 µg/mL | MIC of cefixime (CFM) [2]: 0.125 µg/mL | MIC of ceftibuten (CTB) [2]: 0.06 µg/mL | MIC of cefalexin (LEX) [3]: 0.06 µg/mL | MIC of cefdinir (CDR) [3]: 0.06 µg/mL | MIC of cefixime (CFM) [3]: 0.06 µg/mL | MIC of ceftibuten (CTB) [3]: 0.03 µg/mL | MIC of cefalexin (LEX) [4]: 0.25 µg/mL | MIC of cefdinir (CDR) [4]: 0.25 µg/mL | MIC of cefixime (CFM) [4]: 0.125 µg/mL | MIC of ceftibuten (CTB) [4]: 0.0149 µg/mL | MIC of cefalexin (LEX) [5]: 1 µg/mL | MIC of cefdinir (CDR) [5]: 1 µg/mL | MIC of cefixime (CFM) [5]: 1 µg/mL | MIC of ceftibuten (CTB) [5]: 0.5 µg/mL | MIC of cefalexin (LEX) [6]: 0.25 µg/mL | MIC of cefdinir (CDR) [6]: 0.25 µg/mL | MIC of cefixime (CFM) [6]: 0.5 µg/mL | MIC of ceftibuten (CTB) [6]: 0.25 µg/mL | MIC of cefalexin (LEX) [7]: 0.25 µg/mL | MIC of cefdinir (CDR) [7]: 0.25 µg/mL | MIC of cefixime (CFM) [7]: 0.25 µg/mL | MIC of ceftibuten (CTB) [7]: 0.5 µg/mL | MIC of cefalexin (LEX) [8]: 0.125 µg/mL | MIC of cefdinir (CDR) [8]: 0.125 µg/mL | MIC of cefixime (CFM) [8]: 0.06 µg/mL | MIC of ceftibuten (CTB) [8]: 0.06 µg/mL | MIC of cefalexin (LEX) [9]: 0.25 µg/mL | MIC of cefdinir (CDR) [9]: 0.25 µg/mL | MIC of cefixime (CFM) [9]: 0.25 µg/mL | MIC of ceftibuten (CTB) [9]: 0.06 µg/mL | MIC of cefalexin (LEX) [10]: 1 µg/mL | MIC of cefdinir (CDR) [10]: 1 µg/mL | MIC of cefixime (CFM) [10]: 0.5 µg/mL | MIC of ceftibuten (CTB) [10]: 0.06 µg/mL | MIC of cefalexin (LEX) [11]: 0.125 µg/mL | MIC of cefdinir (CDR) [11]: 0.125 µg/mL | MIC of cefixime (CFM) [11]: 0.06 µg/mL | MIC of ceftibuten (CTB) [11]: 0.06 µg/mL | MIC of cefalexin (LEX) [12]: >32 µg/mL | MIC of cefdinir (CDR) [12]: >32 µg/mL | MIC of cefixime (CFM) [12]: >32 µg/mL | MIC of ceftibuten (CTB) [12]: 8 µg/mL | MIC of cefalexin (LEX) [13]: 0.06 µg/mL | MIC of cefdinir (CDR) [13]: 0.06 µg/mL | MIC of cefixime (CFM) [13]: 0.125 µg/mL | MIC of ceftibuten (CTB) [13]: 0.25 µg/mL | MIC of cefalexin (LEX) [14]: 16 µg/mL | MIC of cefdinir (CDR) [14]: 16 µg/mL | MIC of cefixime (CFM) [14]: >32 µg/mL | MIC of ceftibuten (CTB) [14]: >32 µg/mL | MIC of cefalexin (LEX) [15]: 0.125 µg/mL | MIC of cefdinir (CDR) [15]: 0.125 µg/mL | MIC of cefixime (CFM) [15]: 0.25 µg/mL | MIC of ceftibuten (CTB) [15]: 0.06 µg/mL | MIC of cefalexin (LEX) [16]: 1 µg/mL | MIC of cefdinir (CDR) [16]: 1 µg/mL | MIC of cefixime (CFM) [16]: 0.5 µg/mL | MIC of ceftibuten (CTB) [16]: 0.125 µg/mL | MIC of cefalexin (LEX) [17]: 0.5 µg/mL | MIC of cefdinir (CDR) [17]: 0.5 µg/mL | MIC of cefixime (CFM) [17]: 1 µg/mL | MIC of ceftibuten (CTB) [17]: 0.5 µg/mL | MIC of cefalexin (LEX) [18]: 1 µg/mL | MIC of cefdinir (CDR) [18]: 1 µg/mL | MIC of cefixime (CFM) [18]: 1 µg/mL | MIC of ceftibuten (CTB) [18]: 0.5 µg/mL | MIC of cefalexin (LEX) [19]: 0.5 µg/mL | MIC of cefdinir (CDR) [19]: 0.5 µg/mL | MIC of cefixime (CFM) [19]: 2 µg/mL | MIC of ceftibuten (CTB) [19]: 0.25 µg/mL | MIC of cefalexin (LEX) [20]: 1 µg/mL | MIC of cefdinir (CDR) [20]: 1 µg/mL | MIC of cefixime (CFM) [20]: 0.5 µg/mL | MIC of ceftibuten (CTB) [20]: 0.125 µg/mL | MIC of cefalexin (LEX) [21]: 0.125 µg/mL | MIC of cefdinir (CDR) [21]: 0.125 µg/mL | MIC of cefixime (CFM) [21]: 0.125 µg/mL | MIC of ceftibuten (CTB) [21]: 0.06 µg/mL
